Measured values reported in US9975903B2, “Condensed heterocyclic compound” (Takeda Pharmaceutical Company Limited, priority 2014, dated 2018).
Counter-ions that a name gives are not always drawn.

Target: T1, Human recombinant enteropeptidase (Homo sapiens, UniProt P98073)
T1 construct: purchased ITSI-Biosciences LLC #REN-260
Assay: Human enteropeptidase inhibitory activity (Test Example 1)
Format: biochemical
Details: 3.3 μM test compound; inhibition rate from fluorescence intensity at 2 hours after the start of the reaction; read-out: 3.3 μM Inhibition
In short: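 Recombinant human enteropeptidase in 50 mM Tricine pH 8.0, 0.01% Tween 20, 10 mM CaCl2, with a 5FAM/CPQ2-quenched peptide substrate (2.1 μM solution before mixing). Compound came from 1 mM DMSO stock diluted 100-fold in buffer. Fluorescence (ex 485/em 535 nm) at 2 h gave % inhibition versus no-compound and no-enzyme controls.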

T1 sequence (P98073 whole entry): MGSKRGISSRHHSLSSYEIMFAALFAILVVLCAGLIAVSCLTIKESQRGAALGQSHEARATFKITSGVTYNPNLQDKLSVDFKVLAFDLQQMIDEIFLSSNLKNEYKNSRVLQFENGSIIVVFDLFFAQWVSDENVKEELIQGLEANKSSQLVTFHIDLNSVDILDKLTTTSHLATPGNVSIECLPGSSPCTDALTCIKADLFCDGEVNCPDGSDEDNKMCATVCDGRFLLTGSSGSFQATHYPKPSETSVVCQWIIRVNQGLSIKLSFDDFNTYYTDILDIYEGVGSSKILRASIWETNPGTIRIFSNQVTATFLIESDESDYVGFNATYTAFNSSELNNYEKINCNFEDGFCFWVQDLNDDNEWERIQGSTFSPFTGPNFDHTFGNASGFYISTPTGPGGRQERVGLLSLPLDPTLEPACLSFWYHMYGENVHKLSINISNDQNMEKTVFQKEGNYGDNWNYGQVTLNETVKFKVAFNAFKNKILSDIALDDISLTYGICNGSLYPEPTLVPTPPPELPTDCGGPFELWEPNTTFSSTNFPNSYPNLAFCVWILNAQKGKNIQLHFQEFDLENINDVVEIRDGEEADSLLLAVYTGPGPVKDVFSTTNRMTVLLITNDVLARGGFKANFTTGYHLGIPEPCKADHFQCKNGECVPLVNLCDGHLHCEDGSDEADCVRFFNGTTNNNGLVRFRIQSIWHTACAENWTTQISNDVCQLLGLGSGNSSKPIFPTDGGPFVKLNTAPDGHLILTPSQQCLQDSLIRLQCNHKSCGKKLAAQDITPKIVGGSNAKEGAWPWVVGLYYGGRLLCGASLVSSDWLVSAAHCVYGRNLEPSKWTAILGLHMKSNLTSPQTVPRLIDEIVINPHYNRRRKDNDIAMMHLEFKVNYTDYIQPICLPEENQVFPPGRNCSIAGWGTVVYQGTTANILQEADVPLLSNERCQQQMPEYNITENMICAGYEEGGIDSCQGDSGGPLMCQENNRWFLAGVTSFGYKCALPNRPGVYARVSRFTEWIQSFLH

Point of comparison: `N=C(N)Nc1ccc2c(c1)CCCOc1c(cccc1C(=O)N[C@H](CC(=O)O)C(=O)O)OC2=O` [Example 2, N-((10-Carbamimidamido-13-oxo-6,7,8,13-tetrahydrodibenzo[b,f][1,4]dioxecin-4-yl)carbonyl)-D-aspartic acid], inhibition at 3.3 µM 101%. Against it:
- N=C(N)Nc1ccc2c(c1)CCCOc1c(cccc1C(=O)N1CCC[C@H]1C(=O)N[C@@H](CC(=O)O)C(=O)O)OC2=O [Example 99, 1-((10-Carbamimidamido-13-oxo-6,7,8,13-tetrahydrodibenzo[b,f][1,4]dioxecin-4-yl)carbonyl)-L-prolyl-L-aspartic acid] — lower, 100%
- N=C(N)Nc1ccc2c(c1)CCCOc1c(ccc(CCC(=O)N(CC(=O)O)CC(=O)O)c1C(=O)O)OC2=O [Example 129, 3-(3-(bis(carboxy-methyl)amino)-3-oxopropyl)-10-carbamimidamido-13-oxo-6,7,8,13-tetrahydro-dibenzo[b,f] [1,4]dioxecine-4-carboxylic acid] — lower, 100%
- N=C(N)Nc1ccc2c(c1)CCCOc1c(cccc1C1=NO[C@@](CC(=O)O)(C(=O)O)C1)OC2=O (stereo in doubt) [Example 22, 3-(10-Carbamimidamido-13-oxo-6,7,8,13-tetrahydrodibenzo[b,f][1,4]dioxecin-4-yl)-5-(carboxymethyl)-4,5-dihydro-1,2-oxazole-5-carboxylic acid] — the same, 101%
- N=C(N)Nc1ccc2c(c1)CCCOc1c(cccc1C(=O)NCS(=O)(=O)O)OC2=O [Example 27, (((10-carbamimidamido-13-oxo-6,7,8,13-tetrahydro-dibenzo[b,f] [1,4]dioxecin-4-yl)carbonyl)amino) methanesulfonic acid] — higher, 102%
- N=C(N)Nc1ccc2c(c1)CCCOc1c(ccc(CCC(=O)O)c1C(=O)N(CC(=O)O)CC(=O)O)OC2=O [Example 119, 3-(4-(Bis(carboxymethyl)carbamoyl)-10-carbamimidamido-13-oxo-6,7,8,13-tetrahydrodibenzo[b,f][1,4]dioxecin-3-yl)propanoic acid] — the same, 101%
- N=C(N)Nc1ccc2c(c1)CCCOc1c(CCC(=O)O)cccc1OC2=O [Example 91, 3-(10-Carbamimidamido-13-oxo-6,7,8,13-tetrahydrodibenzo[b,f][1,4]dioxecin-4-yl)propanoic acid trifluoroacetate] — higher, 102%
- N=C(N)Nc1ccc2c(c1)CCCCc1c(cccc1C(=O)NCCS(=O)(=O)O)OC2=O [Example 33, 2-(((3-carbamimidamido-14-oxo-5,7,8,14-tetrahydro-6H-dibenzo[b,h]oxecin-9-yl)carbonyl)amino) ethanesulfonic acid] — lower, 98%
- N=C(N)Nc1ccc2c(c1)OCCCOc1c(CCC(=O)N[C@@H](CC(=O)O)C(=O)O)cccc1OC2=O [Example 43, N-(3-(3-Carbamimidamido-15-oxo-7,8-dihydro-6H, 15H-dibenzo[b,f][1,4,8]trioxacycloundecin-10-yl)propanoyl)aspartic acid trifluoroacetate] — the same, 101%
- N=C(N)Nc1ccc2c(c1)CCCOc1c(ccc(CCC(=O)O)c1C(=O)N[C@@H](Cc1ccc(O)cc1)C(=O)O)OC2=O [Example 113, N-((10-carbamimidamido-3-(2-carboxyethyl)-13-oxo-6,7,8,13-tetrahydro-dibenzo[b,f] [1,4]dioxecin-4-yl)carbonyl)-L-tyrosine] — lower, 99%
- N=C(N)c1ccc2c(c1)CCc1cc(C(=O)N[C@@H](CC(=O)O)C(=O)O)ccc1C(=O)O2 [Example 63, N-((2-carbamimidoyl-6-oxo-11,12-dihydro-6H-dibenzo[b,f]oxocin-9-yl)carbonyl)-L-aspartic acid] — lower, 93%
- N=C(N)Nc1ccc2c(c1)CCCOc1c(cccc1C(=O)N[C@@H](CC(N)=O)C(=O)O)OC2=O [Example 17, N^~2^~-((10-carbamimidamido-13-oxo-6,7,8,13-tetrahydro-dibenzo[b,f] [1,4]dioxecin-4-yl)carbonyl)-L-asparagine] — lower, 100%
